Laboratory results as given in patent publication US20250235501A1, “Methods and Compositions for Treating or Preventing Neurological Injury or Neurological Disorders” (University of Connecticut, priority 2024, published 2025).

How the values were obtained:
[1] = system: NMDARs (GluN1a, GluN2a, GluN2b); assay: Surface expression of NMDARs in HEK293T cells co-transfected with NMDARs and TRPM2 (WB); type: cell-based, human; details: 1 μM compound overnight
Protocol: FIGS. 4K-4N show the surface expression of NMDARs in HEK-293T cells co-transfected with TRPM2 or EGFP with the treatment of PKC activator PMA (FIG. 4K) and inhibitor Stausporine (FIG. 4L). Membrane (Mem) and cytocol (Cyto) NMDARs were analyzed and averaged from 3 independent experiments with 1 μM PMA treatment (FIG. 4N) or 1 μM Stausporine treatment (FIG. 4L) for overnight. Pan-cadherin and β-tubulin were loading controls for membrane and cytosol protein, respectively (*, p<0.05, **, p<0.01, ***, p<0.001, unpaired t-test, mean±SEM, n=3/group).
FIGS. 5C-5F effects of TAT-EE3 on surface expression of NMDARs. HEK293T cells co-transfected with NMDARs with TRPM2 (+M2) or EGFP vector (Con) were treated with 10 μM TAT-SC (FIG. 5C) or TAT-EE3 (FIG. 5D) overnight. Membrane (Mem) and cytosol (Cyto) proteins of NMDARs in TAT-SC (FIG. 5E) and TAT-EE3 (FIG. 5F) treated groups were assessed by WBs and analyzed in reference to Pan-cadherin or β-tubulin (**, p<0.01, ***, p<0.001, unpaired t-test, mean±SEM). All the results were replicated in at least 3 independent experiments.
Pan-cadherin and β-tubulin were used as loading control for membrane and cytosolic protein extraction.
were ordered from GenScript Biotech, and dissolved in PBS to make a stock concentration at 10 mM. HEK-293T cells or isolated neurons were treated with TAT-SC or TAT-EE3 at a concentration of 10 μM for at least 8 h prior to use. Mice were injected with TAT-SC or TAT-EE3 intraperitoneally (ip) at a dose of 100 nmol/kg.
HEK293T cells were cultured in Dulbecco's Modified Eagle's medium (DMEM) (Thermal Fisher Scientific, 12100-038) supplemented with 10% BGS (HyClone, SH30541.03) and 0.5% penicillin/streptomycin (Thermal Fisher Scientific, 15140-122) at 37° C. and 5% CO2. 8 h prior to transfection, culture medium was replaced with DMEM supplemented only with 2.5% BGS. Cells were transfected when at a confluence about 80-90% using Lipofectamine® 3000 Transfection Kit (Thermal Fisher Scientific, 2232162) based on instruction.
NP-40/Triton lysis buffer ([…], 1% Triton™ X-100, 150 mM NaCl, 1 mM EDTA, 50 mM Tris, pH=8.0) containing proteinase inhibitors and phosphatase inhibitors was used to lyse both cultured cells and frozen brain tissue. Surface protein was extracted using Pierce® Cell Surface Protein Isolation Kit (Thermal Fisher Scientific, 89881) in transfected HEK-293T cells, and using ProteoExtract™ Native Membrane Protein Extraction Kit (Calbiochem, 444810) in brain tissue based on instructions. […] Protein concentration was measured using Pierce™ Rapid Gold BCA Protein Assay Kit.
30-50 μg of total protein was loaded and separated proteins were transferred to Nitrocellulose membranes. […] Band intensity was quantified using ImageJ software and normalized with appropriate loading controls.

NMDARs = assay: NMDAR currents in cultured cortical neurons of WT and TRPM2-KO mice (whole cell recording); type: cell-based, mouse; details: for NMDAR current amplitude in WT neurons: 1 μM compound overnight, 10 μM NMDA, -80 mV, compared with TRPM2-KO neurons
Protocol: FIGS. 4O and 4P show the effects of stausporine on NMDAR currents recorded from cortical neurons cultured for 14 days. FIG. 4O show representative NMDAR currents elicited at −80 mV by 10 μM NMDA in WT and TRPM2-KO (gM2KO) neurons treated with or without Stausporine at 1 μM for overnight. FIG. 4P show the average current amplitude (ns, p>0.05; **, p<0.01; ANOVA, Bonferroni's test; mean±SEM, n=11, 10, 10, 12 neurons from 2 mice respectively).
FIG. 4S show representative NMDAR currents elicited by NMDA in WT and TRPM2-KO neurons treated with or without endosidin2 at 1 μM for overnight.
FIGS. 5I-5K show the effects of TAT-EE3 on PKC induced changes of NMDAR currents recorded in cortical neurons of WT and TRPM2-KO. Neurons were incubated with 10 μM TAT-SC or TAT-EE3 for overnight before current recording. FIG. 5I show representative NMDAR currents elicited by 10 μM NMDA at −80 mV before and after PMA (1 μM) perfusion for 20 s. TAT-SC or TAT-EE3 10 μM was included in the pipette solution for current recording.
FIGS. 6A and 6B show the effects of TAT-EE3 on NMDAR currents in WT and gM2KO cortical neurons cultured for 14 days. […] TAT-SC or TAT-EE3 10 μM was included in the pipette solution during current recording.
Mice pups at P0 were euthanized based on animal protocol. Whole brain was dissected out immediately and immersed in ice-cold Hank's Balanced Salt Solution (HBSS). Meninges were removed thoroughly, and tissue of different brain areas was taken based on purposes. Brain tissue was cut into small pieces and digested with 0.25% trypsin (Thermal Fisher Scientific, 15090-046) in HBSS at 37° C. for 20 min. Digestion solution was quickly removed, and tissue pellets are washed with Neurobasal® Medium (Thermal Fisher Scientific, 21103-049) for 3 times. Cells were resuspended with appropriate amount of Neurobasal® Medium supplemented with 2% B27® supplement (Thermal Fisher Scientific, 17504-044), 3% horse serum (Thermal Fisher Scientific, 16050114), 0.25% L-glutamine (Thermal Fisher Scientific, 25030-081) and 1% penicillin/streptomycin (Thermal Fisher Scientific, 15140-122). Isolated cells were counted and plated on coverslips pre-coated with poly-L-lysine (Sigma-Aldrich, P4707) at a density about 500×10^3 cells/cm2 for OGD and H2O2 treatment, and 100×10^3 cells/cm2 for current recording. Cytosine arabinoside (Sigma-Aldrich, C1768) was added to maintain a concentration at 1 μM to inhibit the proliferation of non-neuronal cells. 24 h after plating, culture medium was changed to Neurobasal® Medium supplemented with 2% B27® supplement, 0.25% L-glutamine and 1% penicillin/streptomycin. The concentration of Cytosine arabinoside (araC) was increased to 2 μM. Medium was changed every 3 days. OGD and H2O2 treatment was conducted at 7th day of culture, and current recording was conducted at 7th, 10th and 14th day of culture.
Whole cell currents were recorded using an Axopatch 200B amplifier. Data were digitized at 10 or 20 kHz and digitally filtered offline at 1 kHz. Patch electrodes were pulled from borosilicate glass and fire-polished to a resistance of ˜3 MΩ when filled with internal solutions. Series resistance (Rs) was compensated up to 90% to reduce series resistance errors to <5 mV. Cells in which Rs was >10 MΩ were discarded (Du, J., Xie, J., and Yue, L. (2009). Modulation of TRPM2 by acidic pH and the underlying mechanisms for pH sensitivity. J Gen Physiol 134, 471-88).
For heterologous expression, transfected HEK-293 cells were identified by GFP fluorescence. TRPM2 current recording in transfected HEK-293T cells was performed as we previously reported (Du, J., Xie, J., and Yue, L. (2009). Intracellular calcium activates TRPM2 and its alternative spliced isoforms. Proceedings of the National Academy of Sciences 107, 7239-44; Du, J., Xie, J., and Yue, L. (2009). Modulation of TRPM2 by acidic pH and the underlying mechanisms for pH sensitivity. J Gen Physiol 134, 471-88). […]

SMILES | surface expression level of NMDARs in cells transfected with NMDARs and TRPM2 [1] | NMDAR current amplitude in WT neurons (NMDARs) | increase of NMDA-induced current by PMA (NMDARs; WT neurons, PMA 1 μM perfusion for 20 s) | NMDA-induced current after PMA perfusion (NMDARs; WT neurons, PMA 1 μM perfusion for 20 s, before PMA 1542.1±117.1 pA) [pA]
COc1cc(/C=N/NC(=O)c2cccc(F)c2)cc(I)c1O [Endosidin 2, reference compound] | prevented the increase | abolished the increased current amplitude |  | 
CCCCCCCCCCCCCC(=O)O[C@@H]1[C@@H](C)[C@@]2(O)[C@@H](C=C(CO)C[C@]3(O)C(=O)C(C)=C[C@@H]23)[C@@H]2C(C)(C)[C@]12OC(C)=O [PMA, Phorbol-12-myristate-13-acetate, reference compound] | much higher level of surface NMDARs |  | about 1.5 fold | 3642.1±180.8
CN[C@@H]1C[C@H]2O[C@@](C)([C@@H]1OC)n1c3ccccc3c3c4c(c5c6ccccc6n2c5c31)C(=O)NC4 [stausporine, reference compound] | abolished the enhanced surface expression level | normalized NMDAR current amplitude in the WT neuron to the similar amplitude level of NMDAR current in TRPM2-KO neurons |  | 
